Read-outs that look alike come from different tables or passages of the source.
Experiments:
[1] = target: GSK3α (GST-full length GSK3α) (Homo sapiens (Human), UniProt P49840); assay: GSK3α TR-FRET kinase assay; assay type: biochemical
Outline: (§1)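 Compound was preincubated 30 min with 1 nM GST-GSK3 enzyme. Reaction ran 100 min at ambient temperature in Tris pH 7.5/MgCl2 with 200 nM biotinylated pS645-glycogen synthase 631-650 peptide and ATP (4 μM GSK3α, 2 μM GSK3b, or 1 mM). The EDTA-stopped reaction was read by TR-FRET (Tb-anti-pSer641/streptavidin-d2), and IC50s were fitted.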

[2] = target: GSK3b (GST-full length GSK3b) (Homo sapiens (Human), UniProt P49841); assay: GSK3b TR-FRET kinase assay; assay type: biochemical
Chain of GSK3b (GST-full length GSK3b) (P49841 whole entry): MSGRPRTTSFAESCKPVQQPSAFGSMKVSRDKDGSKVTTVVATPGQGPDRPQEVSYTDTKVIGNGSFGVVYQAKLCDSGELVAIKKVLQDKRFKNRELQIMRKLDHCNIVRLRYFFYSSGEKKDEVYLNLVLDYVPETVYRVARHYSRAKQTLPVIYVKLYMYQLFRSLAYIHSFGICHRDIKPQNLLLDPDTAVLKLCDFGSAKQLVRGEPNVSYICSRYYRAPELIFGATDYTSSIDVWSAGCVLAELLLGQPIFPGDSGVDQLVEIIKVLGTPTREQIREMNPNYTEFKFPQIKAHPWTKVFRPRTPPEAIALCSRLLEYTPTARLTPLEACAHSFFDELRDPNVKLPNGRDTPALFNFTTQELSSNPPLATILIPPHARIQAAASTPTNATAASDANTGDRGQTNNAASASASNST
Outline: as §1

[3] = 1 nM GSK3α, 4 μM ATP, 30 minute preincubation, Table 16, read-out: GSK3-A TR-FRET BIOCHEMICAL (TR-FRET)
[4] = 1 nM GSK3b, 2 μM ATP, 30 minute preincubation, Table 16, read-out: GSK3-B TR-FRET BIOCHEMICAL (TR-FRET)
[5] = 1 nM GSK3α, 4 μM ATP, 30 minute preincubation, Table 16, read-out: GSK3-A TR-FRET BIOCHEMICAL (TR-FRET), IC50
[6] = 1 nM GSK3b, 2 μM ATP, 30 minute preincubation, Table 16, read-out: GSK3-B TR-FRET BIOCHEMICAL (TR-FRET), IC50
[7] = 1 nM GSK3α, 4 μM ATP, 30 minute preincubation, read-out: GSK3-A TR-FRET BIOCHEMICAL (TR-FRET), IC50
[8] = GSK3-A (TR-FRET 1 mM ATP), GMean, IC50, 1 mM ATP, geometric mean
[9] = 1 nM GSK3b, 2 μM ATP, 30 minute preincubation, read-out: GSK3-B TR-FRET BIOCHEMICAL (TR-FRET), IC50
[10] = GSK3-B (TR-FRET 1 mM ATP), GMean, IC50, 1 mM ATP, geometric mean
[11] = read-out: GSK3-A (TR-FRET 1 mM ATP), GMean, IC50, 1 mM ATP, geometric mean
[12] = read-out: GSK3-B (TR-FRET 1 mM ATP), GMean, IC50, 1 mM ATP, geometric mean

Chain of GSK3α (GST-full length GSK3α) (P49840 whole entry): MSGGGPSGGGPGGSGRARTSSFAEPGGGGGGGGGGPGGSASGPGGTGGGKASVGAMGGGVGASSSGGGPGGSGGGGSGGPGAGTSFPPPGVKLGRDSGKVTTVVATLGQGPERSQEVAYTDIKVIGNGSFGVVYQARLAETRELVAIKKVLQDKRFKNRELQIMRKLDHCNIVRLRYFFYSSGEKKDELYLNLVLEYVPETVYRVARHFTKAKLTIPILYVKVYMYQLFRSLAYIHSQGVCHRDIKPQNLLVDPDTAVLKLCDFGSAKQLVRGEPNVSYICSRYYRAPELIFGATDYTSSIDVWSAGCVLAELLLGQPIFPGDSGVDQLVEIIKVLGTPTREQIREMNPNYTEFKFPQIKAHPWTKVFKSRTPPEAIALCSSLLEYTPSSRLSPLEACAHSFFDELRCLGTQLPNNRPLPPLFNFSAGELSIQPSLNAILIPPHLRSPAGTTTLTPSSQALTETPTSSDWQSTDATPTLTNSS

Row | SMILES | IC50 [1, 5] [nM] | IC50 [2, 6] [nM] | also measured
1 | CC1(C)CC(=O)C2=C(Nc3n[nH]cc3C23CCN(S(=O)(=O)c2ccccc2C(F)F)CC3)[C@H]1F [Compound 951839] |  |  | IC50 [1, 3]: ≤ 100 nM; IC50 [2, 4]: 100 to 1000 nM
2 | CC[C@]1(c2cccc(-c3cc(C(C)(C)C)nn3C)c2)C2=C(CC(C)(C)NC2=O)Nc2n[nH]cc21 [Compound 951843] | 100 to 1000 | > 5000 | 
3 | CC[C@@]1(c2cccc(-c3cc(C)nn3-c3ccccc3)c2)C2=C(CC(C)(C)NC2=O)Nc2n[nH]cc21 [Compound 951845] | 100 to 1000 | 100 to 1000 | 
4 | CC1(C)CC(=O)C2=C(Nc3n[nH]cc3C23CCN(S(=O)(=O)c2ccccc2C(F)F)CC3)[C@@H]1F [Compound 951846] |  |  | IC50 [1, 3]: ≤ 100 nM; IC50 [2, 4]: 100 to 1000 nM
5 | CC[C@]1(c2cccc(-c3cnn(Cc4cccc(C(F)(F)F)c4)c3)c2)C2=C(CC(C)(C)NC2=O)Nc2n[nH]cc21 [Compound 951848] | ≤ 100 | 100 to 1000 | 
6 | CC1(C)CC(=O)C2=C(C1)Nc1n[nH]cc1[C@]21CCN(S(=O)(=O)c2cccc(F)c2)C1 [Compound 951861] |  |  | IC50 [1, 7]: ≤ 100 nM; IC50 [1, 8]: 100 to 1000 nM; IC50 [2, 9]: ≤ 100 nM; IC50 [2, 10]: 100 to 1000 nM
7 | CC1(C)CC(=O)C2=C(C1)Nc1n[nH]cc1[C@@]21CCN(S(=O)(=O)c2cccc(F)c2)C1 [Compound 951862] |  |  | IC50 [1, 3]: ≤ 100 nM; IC50 [2, 4]: ≤ 100 nM
8 | Cc1cccc(S(=O)(=O)N2CC[C@]3(C2)C2=C(CC(C)(C)CC2=O)Nc2n[nH]cc23)c1 [Compound 951863] |  |  | IC50 [1, 7]: ≤ 100 nM; IC50 [1, 8]: 100 to 1000 nM; IC50 [2, 9]: ≤ 100 nM; IC50 [2, 10]: 100 to 1000 nM
9 | Cc1cccc(S(=O)(=O)N2CC[C@@]3(C2)C2=C(CC(C)(C)CC2=O)Nc2n[nH]cc23)c1 [Compound 951864] |  |  | IC50 [1, 3]: ≤ 100 nM; IC50 [1, 8]: 100 to 1000 nM; IC50 [2, 4]: ≤ 100 nM; IC50 [2, 10]: 1000 to 5000 nM
10 | CC[C@@]1(c2cccc(C(F)(F)F)c2)C2=C(CCN(c3cc(C)n(C)n3)C2=O)Nc2n[nH]cc21 [Compound 951939] | ≤ 100 | 100 to 1000 | 
11 | CC[C@]1(c2cccc(C(F)F)c2)C2=C(CC(C)(C)NC2=O)Nc2n[nH]c(C(F)(F)F)c21 [Compound 951946] | 100 to 1000 | 1000 to 5000 | 
12 | CC[C@]1(c2cccc(C(F)(F)F)c2)C2=C(CCN(c3cc(C)n(C)n3)C2=O)Nc2n[nH]cc21 [Compound 951954] | > 5000 | > 5000 | 
13 | CC[C@]1(c2cccc(-c3cnn(-c4ccncn4)c3)c2)C2=C(CC(C)(C)NC2=O)Nc2n[nH]cc21 [Compound 952016] | 100 to 1000 | 1000 to 5000 | 
14 | CC[C@]1(c2cccc(-c3cc(C(F)(F)F)nn3C)c2)C2=C(CC(C)(C)NC2=O)Nc2n[nH]cc21 [Compound 952018] | 100 to 1000 | 1000 to 5000 | 
15 | CC[C@]1(c2cccc(-c3c(C)cnn3C)c2)C2=C(CC(C)(C)NC2=O)Nc2n[nH]cc21 [Compound 952021] | ≤ 100 | ≤ 100 | IC50 [1, 11]: 100 to 1000 nM; IC50 [2, 12]: > 5000 nM
16 | CCC1(c2cccc(-c3cnn(CCN4CCCC4)c3)c2)C2=C(CC(C)(C)NC2=O)Nc2n[nH]cc21 (centres unmarked) [Compound 952022] | 100 to 1000 | 1000 to 5000 | 
17 | CCC1(c2cccc(-c3cc(C4CCCC4)nn3C)c2)C2=C(CC(C)(C)NC2=O)Nc2n[nH]cc21 (centres unmarked) [Compound 952023] | 100 to 1000 | 1000 to 5000 | 
18 | CC[C@]1(c2cccc(-c3cnn(-c4cccnc4)c3)c2)C2=C(CC(C)(C)NC2=O)Nc2n[nH]cc21 [Compound 952024] | 100 to 1000 | > 5000 | 

Second part, led by results:

Row | IC50 [1, 5] [nM] | IC50 [2, 6] [nM] | SMILES | also measured
19 | 100 to 1000 | 1000 to 5000 | CCC1(c2cccc(-c3cc(C(C)C)nn3C)c2)C2=C(CC(C)(C)NC2=O)Nc2n[nH]cc21 (centres unmarked) [Compound 951842] | 
20 | ≤ 100 | 100 to 1000 | CC[C@]1(c2cccc(-c3c(C#N)c(C)nn3C)c2)C2=C(CC(C)(C)NC2=O)Nc2n[nH]cc21 [Compound 951844] | 
21 | ≤ 100 | 100 to 1000 | CCC1(c2cccc(-c3cnn(Cc4ccc(C(F)(F)F)cc4)c3)c2)C2=C(CC(C)(C)NC2=O)Nc2n[nH]cc21 (centres unmarked) [Compound 951849] | 
22 | ≤ 100 | ≤ 100 | CCC1(c2cccc(C(F)F)c2)C2=C(CC(C)(C)NC2=O)Nc2n[nH]c(C(F)(F)F)c21 (centres unmarked) [Compound 951948] | IC50 [1, 11]: ≤ 100 nM; IC50 [2, 12]: 100 to 1000 nM
23 | ≤ 100 | 100 to 1000 | CC[C@]1(c2cccc(-c3cnn4c3OCCC4)c2)C2=C(CC(C)(C)NC2=O)Nc2n[nH]cc21 [Compound 952019] | 
